Measurements: patent US20060241130A1, “Anti-inflammatory compositions and uses thereof” (priority 2003, published 2006)

What was measured:
[1] = Cromolyn sodium lyotropic mesophase formation (polarizing microscope); type: physicochemical; details: phosphate buffered saline pH 7.4, 5 to 12 percent (w/w) tested
Description: Preparation of cromolyn sodium lyotropic mesophases: Solutions of cromolyn sodium (white powder, Vitamed Inc., Israel) were dissolved in phosphate buffered saline [50 mM phosphate, 100 mM NaCl (pH 7.4)] at eight different concentrations between 5 and 12 percent (w/w).

[2] = Control: effect of sodium hypochlorite on cromolyn sodium mesophases; type: physicochemical; details: any concentration of cromolyn sodium, 8 hours at room temperature
Description: (§1) Analysis of the effect of ozone on cromolyn sodium mesophases: Six solutions of cromolyn sodium in PBS (7-12 percent) were placed in narrow (5 mm) NMR tubes and ozone (10 percent in oxygen) was bubbled for 5 minutes through the solutions using a flexible Teflon tube. […] Control experiments were carried out with hydrogen peroxide (30 percent) and sodium hypochlorite.

[3] = Effect of ozone on cromolyn sodium mesophases; type: physicochemical; details: 7-12 percent in PBS, ozone (10 percent in oxygen) bubbled for 5 minutes
Description: as §1

[4] = Control: effect of hydrogen peroxide on cromolyn sodium mesophases; type: physicochemical; details: hydrogen peroxide (30 percent), 8 hours at room temperature
Description: as §1

[5] = tested on: ovalbumin sensitized Brown Norway rats; experiment: Asthma treatment model II: blinded histopathological scoring of lung sections (H&E); type: in vivo, rat
Description: (§2) Asthma treatment model II: Asthma was induced on day 0 in three experimental groups of 10 animals each, by sensitization with ovalbumin (OVA) and aluminum hydroxide, as previously described (Du et al., 1992. Am. Rev. Resp. Dis. 146:1037-1041). Sensitization to the model antigen ovalbumin (OVA) was carried out by subcutaneous injection of 1 mg OVA (Sigma, St. Louis, Mo.) and 200 mg of aluminum hydroxide (AlumInject; Pierce Chemical, Rockford, Ill.) in 0.9 percent (w/w) saline in a total volume of 1 ml, and intraperitoneal injection of 1 ml saline containing 6 billion heat killed Bordetella pertussis cells (Pasteur Marieux, France). A fourth group of 10 animals was not sensitized and was used as the naive control group. The three groups of sensitized rats as well as the group of naive animals were challenged every other day from day 14 until day 21 with repeated 10 minute long inhalations of OVA using an ultrasonic nebulizer inhaler (LS 230 Systam Villeneuve Sur Lot, France). Throughout the experiments, the rats were kept unrestrained in a 20 liters box.
In model II, all rats were anaesthetized on day 21 with pentothal and sacrificed by bleeding from the abdominal aorta. Lungs were removed and inflated with 4 percent buffered formaldehyde overlayed with 20 cm water. The lungs were sliced longitudinally and embedded in paraffin. Histologic sections 5 microns thick were cut and stained with hematoxylin and eosin. The morphological changes were evaluated by light microscopy by a pathologist who was blinded to the treatment groups. The intensity of the peribronchiolar and perivascular cellular infiltration was assessed semi-quantitatively on a 0-3 scale as follows: 0=no or practically no inflammatory cells; I=a narrow rim of inflammatory cells surrounding most of the bronchioles/blood vessels, best visualized under high power; 2=a rim of inflammatory cells 3-4 cells thick, surrounding most of the bronchioles/blood vessels; 3=a prominent rim of inflammatory cells, 5 or more cells thick, surrounding most of the bronchioles/blood vessels. Bronchiolar constriction was also assessed on a semi-quantitative scale ranging over 0-3 grades (0=none; 1=mild; 2=moderate; 3=marked). The histologic sections included bronchioles (defined as airways lined by mucosa and lacking cartilage) and distal airways (alveolar ducts and sacs). The features examined included peribronchiolar and perivascular inflammation, morphological evidence of bronchoconstriction (papillary infolding of the bronchiolar mucosa) and granulomatous response in the pulmonary parenchyma.

[6] = tested on: ovalbumin sensitized Brown Norway rats; experiment: Asthma treatment model II: Penh (barometric plethysmography) after repeated OVA challenge; type: in vivo, rat; details: 125 ppm in breathing atmosphere day 14 to day 21, measured day 21, 5 minutes after allergen challenge, mean ± standard error
Description: as §2

asthmatic human patients = experiment: Double-blind cross-over study in asthmatic children, adenosine bronchial provocation test; type: in vivo; details: about 80 ppm nightly for two weeks
Description: Patients: Eleven patients were recruited from children to the pediatric pulmonary clinic, Rambam Medical Center, Haifa. Inclusion criteria: age: 6-11 years; diagnosis of asthma by ATS criteria; ability to perform spirometry consistently; asthma severity classified as “mild persistent” as per the GINA workshop report; no anti-inflammatory medication, including antihistamines, taken for at least 2 weeks prior to enrollment. Exclusion criteria: presence of other chronic conditions; emergency room visit in the past 3 months; respiratory infection in the past month; steroids or other anti-inflammatory medication taken within 2 weeks prior to treatment; and bronchodilators, theophylline preparations or monteleukast taken in the 24 hours prior to spirometry.
Study design: A double-blind cross-over study format was used to evaluate the effect of monoterpenes on asthma. The study included four phases, each lasting two weeks. Following enrollment, baseline spirometry was performed and inclusion/exclusion was verified. The patients then filled in a diary card for two weeks. […]
Adenosine bronchial provocation test (BPT): Bronchial provocation tests were performed by inhalation of nebulized adenosine 5′-monophosphate (adenosine; Sigma chemical company, St. Louis, Mo., USA) solutions in doubling doses. […] The best of three efforts were recorded. […]

[7] = 0-3 scale, 125 ppm inhalation day 14-21, OVA sensitized, OVA challenged rats
[8] = H&E, representative treated rat

SMILES: O=C(O)c1cc(=O)c2c(OCC(O)COc3cccc4oc(C(=O)O)cc(=O)c34)cccc2o1 [cromolyn sodium]
- minimal concentration that exhibited birefringence [1]: 6%
- birefringence after hypochlorite [2]: No effect
- birefringence after ozone [3]: Loss of birefringence in all tubes
- conversion to oxidized products (1H-NMR) [3]: complete conversion
- birefringence after hydrogen peroxide, 7 and 8 percent cromolyn sodium [4]: loss of birefringence was observed
- birefringence after hydrogen peroxide, more concentrated cromolyn sodium [4]: No effect

SMILES: CC12CCC(CC1)C(C)(C)O2 [eucalyptol]
- morphological evidence of bronchoconstriction score ([5]; 0-3 grades, 125 ppm inhalation day 14-21, OVA sensitized, OVA challenged rats): 2.3±0.21
- peribronchial inflammatory cell infiltration score [5, 7]: 2.2±0.29
- perivascular inflammatory cell infiltration score [5, 7]: 2.5±0.27
- granulomas (granulomatous response) score ([5]; 125 ppm inhalation day 14-21, OVA sensitized, OVA challenged rats): 1.8±0.42
- morphologic bronchoconstriction in representative lung section (FIG. 12) [5, 8]: shows morphologic evidence of bronchoconstriction
- peribronchiolar inflammation in representative lung section (FIG. 12) [5, 8]: peribronchiolar inflammation and a lymphoid follicle
- Penh values [6]: 2.25±0.12

SMILES: C=C(C)[C@H]1CC=C(C)CC1 [limonene, d-limonene]
- improvement in severely asthmatic patients as compared to moderately asthmatic patients (asthmatic human patients; adenosine challenge): approximately one order of magnitude improvement
- asthmatics with asthmatic stress significantly and specifically relieved (adenosine challenge) (asthmatic human patients; children 6-11 years, compared to cineole negative control): 6/11
